Values quoted from earlier work as cited in patent publication US6573299B1, “Method and compositions for treatment of the aging eye” (Advanced Medical Instruments, priority 1999, dated 2003).

Legend:
[1] = long term high intake, greater than 1,000 mg/day
[2] = not given; remark: listed apart in the source
[3] = tested on: tumor necrosis factor-alpha (TNF-alpha) and nitric oxide production
[4] = diet of 6 mg of lutein per day
retinal ganglion cells = conditions: treated animals

CCCCCCCCCCCCCCCC(=O)OC[C@H](O)[C@H]1OC(=O)C(O)=C1O [ascorbyl palmitate]
erythema from UV injured skin (5% lotion): effective in reducing erythema | erythema after exposure to UVB (skin pretreated topically, lecithin gel base, compared to untreated skin): decreased erythema

O=C1O[C@H]([C@@H](O)CO)C(O)=C1O [ascorbic acid]
risk of cataracts [1]: substantially reduced risk of cataracts

Zinc
nitric oxide synthase inhibition (nitric oxide synthase): very potent inhibitor | loss of visual acuity in patients with AMD ([2]; clinical trial, high-dose zinc supplementation): reduction in the loss of visual acuity | AMD ([2]; study published in 1988): improved AMD

Oc1ccc(C=Cc2cc(O)cc(O)c2)cc1 [Resveratrol, 3,5,4′-trihydroxystilbene]
nitric oxide synthase inhibition (nitric oxide synthase): suppresses nitric oxide synthase | TNF-alpha and nitric oxide production [3]: inhibit tumor necrosis factor-alpha (TNF-alpha) and nitric oxide production

CC1=C[C@H](O)CC(C)(C)[C@H]1/C=C/C(C)=C/C=C/C(C)=C/C=C/C=C(C)/C=C/C=C(C)/C=C/C1=C(C)C[C@@H](O)CC1(C)C [lutein]
lower prevalence of AMD [4]: 43%

N=C(N)NN [aminoguanidine]
loss of retinal ganglion cells (retinal ganglion cells): reduction in the loss of retinal ganglion cells
